One data set has as its system bone mineral density. Particulars: administration of fluoride, cited from earlier work.
The test system of a further data set is plasma citrulline. Put plainly: Plasma citrulline levels in human Crohn's Disease patients treated with Teduglutide (randomized, double-blind, placebo-controlled clinical study). Particulars: for Baseline plasma citrulline levels, mean: baseline (Dosing Day 1), subjects with moderately active CD; for 2-week plasma citrulline levels, mean: week 2; for 2-week plasma citrulline levels, mean / 4-week plasma citrulline levels, mean / 8-week plasma citrulline levels, mean: subcutaneous injection daily, CD subjects; for 4-week plasma citrulline levels, mean: week 4; for 8-week plasma citrulline levels, mean: week 8. It is filed as in vivo. The method, then: In a further experiment plasma citrulline levels in human patients treated with Teduglutide for the treatment of Crohn's Disease (CD) were determined. Subjects with moderately active CD were treated in a randomized, double-blind, placebo-controlled clinical study to assess the activity of 3 different doses of Teduglutide compared to placebo. The primary objective of the study was to assess the efficacy and the secondary objectives were to assess the safety and tolerability of the different doses of Teduglutide as compared to placebo. Following a screening visit to evaluate whether subjects met the inclusion/exclusion criteria, the study ran over a period of up to 12 weeks, including visits at baseline/Dosing Day 1, Weeks 2, 4, and 8, and one at the end of the follow-up period at Week 12. Teduglutide doses administered by subcutaneous injection were 0.05, 0.10 and 0.20 mg/kg on a daily basis for 8 weeks. The primary efficacy variable used was the percentage of subjects with a response, defined as a 100-point or greater reduction in the subject's CDAI score at dosing Week 8 from their baseline score or a CDAI score less than 150 at Week 8.

A further data set concerns arrhythmia incidence. Particulars: CAST, cited from earlier work; for mortality in the drug treatment groups: fold greater.

As for `F` [fluoride], the fracture risk result in the data set with bone mineral density (also weaker bone strength) is on record as “increased fracture risk”. Further, the bone mineral density entry with bone mineral density is listed as “significant increases”.

Take `CC[C@H](C)[C@H](NC(=O)[C@H](Cc1ccccc1)NC(=O)[C@H](CC(=O)O)NC(=O)[C@H](CCCNC(=N)N)NC(=O)[C@H](C)NC(=O)[C@H](C)NC(=O)[C@H](CC(C)C)NC(=O)[C@H](CC(N)=O)NC(=O)[C@H](CC(=O)O)NC(=O)[C@H](CC(C)C)NC(=O)[C@@H](NC(=O)[C@@H](NC(=O)[C@H](CC(N)=O)NC(=O)[C@H](CCSC)NC(=O)[C@H](CCC(=O)O)NC(=O)[C@H](CC(=O)O)NC(=O)[C@H](CO)NC(=O)[C@H](Cc1ccccc1)NC(=O)[C@H](CO)NC(=O)CNC(=O)[C@H](CC(=O)O)NC(=O)CNC(=O)[C@@H](N)Cc1c[nH]cn1)[C@@H](C)O)[C@@H](C)CC)C(=O)N[C@@H](CC(N)=O)C(=O)N[C@@H](Cc1c[nH]c2ccccc12)C(=O)N[C@@H](CC(C)C)C(=O)N[C@H](C(=O)N[C@@H](CCC(N)=O)C(=O)N[C@H](C(=O)N[C@@H](CCCCN)C(=O)N[C@H](C(=O)N[C@H](C(=O)N[C@@H](CC(=O)O)C(=O)O)[C@@H](C)O)[C@@H](C)CC)[C@@H](C)O)[C@@H](C)CC` [Teduglutide]: in the data set on plasma citrulline (0.05 mg group), the “Baseline plasma citrulline levels, mean” value worked out at 21.6 µmol/L; the “2-week plasma citrulline levels, mean” value came out at 30.3 µmol/L; the “4-week plasma citrulline levels, mean” value came to 34.5 µmol/L; the “8-week plasma citrulline levels, mean” value was determined as 37.9 µmol/L. In the data set with plasma citrulline (0.10 mg group), the “Baseline plasma citrulline levels, mean” value turned out to be 24.7 µmol/L; the “2-week plasma citrulline levels, mean” value turned out to be 36.9 µmol/L; the “4-week plasma citrulline levels, mean” value was 49.1 µmol/L; the “8-week plasma citrulline levels, mean” value turned out to be 46.0 µmol/L. In the data set with plasma citrulline (0.20 mg group), the “Baseline plasma citrulline levels, mean” value was determined as 24.5 µmol/L; the “2-week plasma citrulline levels, mean” value worked out at 32.7 µmol/L; the “4-week plasma citrulline levels, mean” value came out at 38.8 µmol/L; the “8-week plasma citrulline levels, mean” value came out at 41.8 µmol/L. Besides, in the data set with plasma citrulline (from baseline to week 8, teduglutide-treated groups, placebo group remains the same), the “mean citrulline level, change” value was “increases”.

As for `O=C(NCC1CCCCN1)c1cc(OCC(F)(F)F)ccc1OCC(F)(F)F` (stereo not shown) [flecainide], in the data set on arrhythmia incidence, the arrhythmia incidence result was “significant reduction” and the “mortality in the drug treatment groups” value was 3 fold.

For `COc1ccc(C(=O)Nc2ccccc2CCC2CCCCN2C)cc1` (stereo not shown) [encainide], in the data set on arrhythmia incidence, the arrhythmia incidence entry is given as “significant reduction” and the “mortality in the drug treatment groups” value was 3 fold.

The record behind these values is patent publication US20070184554A1, “Biomarker of improved intestinal function” (NPS ALLELIX CORP., priority 2005, published 2007).
